Data set [1] is described as follows: Bleeding assay, Surgicutt Jr. device (Example 45). The format is in vivo, cynomolgus monkeys. Details: unit not given here. The method, then:
(§1) Groups, each consisting of two male and three female monkeys, were injected subcutaneously with ISIS 416838, ISIS 416850, ISIS 416858, ISIS 416864, or ISIS 417002 in escalating doses. Antisense oligonucleotide was administered to the monkeys at 5 mg/kg three times per a week for week 1; 5 mg/kg twice per week for weeks 2 and 3; 10 mg/kg three times per week for week 4; 10 mg/kg twice per week for weeks 5 and 6; 25 mg/kg three times per week for week 7; and 25 mg/kg twice per week for weeks 8, 9, 10, 11, and 12. One control group, consisting of two male and three female monkeys, was injected subcutaneously with PBS according to the same dosing regimen. An additional experimental group, consisting of two male and three female monkeys, was injected subcutaneously with ISIS 416850 in a chronic, lower dose regimen. Antisense oligonucleotide was administered to the monkeys at 5 mg/kg three times per week for week 1; 5 mg/kg twice per week for week 2 and 3; 10 mg/kg three times per week for week 4; and 10 mg/kg twice per week for weeks 5 to 12. Body weights were measured weekly. Blood samples were collected 14 days and 5 days before the start of treatment and subsequently once per week for Factor 11 protein activity analysis in plasma, fibrinogen measurement, PT and aPTT measurements, bleeding times, and measurement of various hematologic factors. On day 85, the monkeys were euthanized by exsanguination while under deep anesthesia, and organs harvested for further analysis.
On different days during the treatment period, bleeding assay was performed using a Surgicutt Jr. device (ITC, New Jersey). Monkeys were placed in monkey chair with their arm placed in a steady support. The arm was lightly shaved and a sphygmomanometer was placed on the upper arm. The cuff of the sphygmomanometer was inflated to 40 mm Hg and this pressure was maintained throughout the procedure. The area on the upper arm to be incised was cleansed with an antiseptic swab and the Surgicutt Jr device was used to make an incision over the lateral aspect, volar surface of the forearm, parallel to and 5 cm below the antecubital crease. At the exact moment the incision was made, a stopwatch was started. Every 30 seconds, blood from the incision was blotted out using a blotting paper without directly touching the incision, so that formation of the platelet plug was not disturbed. Blood was blotted out every 30 seconds until blood no longer stained the paper. The stopwatch was then stopped and the bleeding time determined. The sphygmomanometer was removed from the animal's arm, the incision site was antiseptically swabbed and a wound closure strip applied. The ISIS oligonucleotide, ISIS 416850, given with the chronic dose regimen is distinguished from the other oligonucleotides with an asterisk (*).

Data set [2] concerns platelet aggregation. The data set is described as follows: Platelet aggregation assay, ADP and/or collagen (Example 45). The format is in vivo, cynomolgus monkeys. As for the experimental part:
as §1
Platelet aggregation was initiated by adding 1 mmol/L ADP and/or 3 μg collagen (depending on the collection day, as outlined in Table 121) to plasma samples, and was allowed to proceed for 10 minutes. Aggregation was characterized by recording the change in the electrical resistance or impedance and the change in the initial slope of aggregation after platelet shape change. The aggregation test was performed twice per sample on each collection day and the average value was taken. The ISIS oligonucleotide, ISIS 416850, given with the chronic dose regimen is distinguished from the other oligonucleotides with an asterisk (*).

Data set [3] is described as follows: Tolerability in Sprague-Dawley rats: liver function (Example 35). Conditions: plasma, 50 mg/kg s.c. twice per week for 6 weeks.
The nature of data set [4]: Tolerability in CD1 mice: kidney function, BUN, creatinine (Example 33). Particulars: plasma, 50 mg/kg s.c. twice a week.
Protocol: A control group of five mice was injected subcutaneously with PBS for 2 weeks. All experimental groups (i.e. ASO treated mice at 2, 4, 6 weeks) were compared to the control group (i.e. PBS, 2 weeks).
To evaluate the effect of ISIS oligonucleotides on kidney function, plasma concentrations of blood urea nitrogen (BUN) and creatinine were measured using an automated clinical chemistry analyzer (Hitachi Olympus AU400e, Melville, N.Y.).
In data set [5] the test system is fibrinogen. Kind of data set: Fibrinogen assay (Example 45). Conditions: plasma. The data set is classed as in vivo, cynomolgus monkeys. The method, then: as §1
Nine parts of fresh monkey plasma was collected into one part of trisodium citrate. The samples were evaluated of fibrinogen content using an ACL 9000 coagulation instrument (Instrumentation Laboratory, Italy). The ISIS oligonucleotide, ISIS 416850, given with the chronic dose regimen is distinguished from the other oligonucleotides with an asterisk (*).

Data set [6] in a line: Kidney function, urine protein to creatinine ratio in cynomolgus monkeys (Example 45). The data set is classed as in vivo. The method, then: as §1
To evaluate the impact of ISIS oligonucleotides on kidney function, urine samples were collected.

Data set [7] is described as follows: Tolerability in Sprague-Dawley rats: liver function (Example 44). The format is in vivo. Details: Albumin: unit not given here. Conditions: 50 mg/kg s.c. twice per week for 6 weeks, plasma.
[8] abbreviates: day 15, chronic dose regimen (*).
Where [9] appears, read: day 15, escalating dose regimen.
[10] abbreviates: day 22, chronic dose regimen (*).
[11] abbreviates: day 22, escalating dose regimen.
The mark [12] stands for this setting: day 36, chronic dose regimen (*).
[13] abbreviates: day 36, escalating dose regimen.
Where [14] appears, read: day 43, chronic dose regimen (*).
Where [15] appears, read: day 43, escalating dose regimen.
Setting [16] is: day 57, escalating dose regimen.
[17] abbreviates: day 64, escalating dose regimen.
The mark [18] stands for this setting: day 78, escalating dose regimen.
Setting [19] is: day 85, escalating dose regimen.
[20] abbreviates: day −5, chronic dose regimen (*).
[21] abbreviates: day −5, escalating dose regimen.
The mark [22] stands for this setting: day −14, chronic dose regimen (*).
Where [23] appears, read: day −14, escalating dose regimen.

Strand notation (5' to 3'): a small letter for the sugar, then the base; units joined by * are phosphorothioate-linked, units joined directly phosphodiester-linked; [ ] holds rarer units or linkages, { } end groups; capitals alone tell only the bases. e = 2'-O-(2-methoxyethyl) (MOE); [5mC] = 5-methylcytosine; d = 2'-deoxy (DNA)

Consider “ISIS 416850: MOE gapmer, nucleobases 1275 to 1318 of SEQ ID NO: 1 (Table 8) (antisense TGCACAGTTTCTGGCAGGCC; MOE gapmer, wing and gap sizes not given here)”, for which the bleeding time turned out to be 149 in data set [1] (setting [8]); 165 in data set [1] (setting [9]); 143 in data set [1] (setting [10]); 151 in data set [1] (setting [11]); 221 in data set [1] (setting [12]); 137 in data set [1] (setting [13]). Moreover, the bleeding time in data set [1] (setting [14]) turned out to be 156; in data set [1] (setting [15]), 216; in data set [1] (setting [16]) it was 195; in data set [1] (setting [17]) it was 201; in data set [1] (setting [18]), 203; in data set [1] (setting [19]) it was 201. Moreover, the bleeding time is listed as 93 in data set [1] (setting [20]), 127 in data set [1] (setting [21]), 177 in data set [1] (setting [22]) and 172 in data set [1] (setting [23]). For the same substance, the platelet aggregation in data set [2] (day 15 (with ADP), chronic dose regimen (*)) worked out at 14 Ohms; in data set [2] (day 15 (with ADP), escalating dose regimen), 12 Ohms; in data set [2] (day 36 (with ADP), chronic dose regimen (*)), 11.6 Ohms; in data set [2] (day 36 (with ADP), escalating dose regimen) it was 16 Ohms; in data set [2] (day 43 (with collagen), chronic dose regimen (*)) it was 21 Ohms; in data set [2] (day 43 (with collagen), escalating dose regimen), 16 Ohms. Also, the platelet aggregation was found to be 18 Ohms in data set [2] (day 57 (with ADP), escalating dose regimen); 17 Ohms in data set [2] (day 64 (with collagen), escalating dose regimen); 9 Ohms in data set [2] (day 78 (with ADP), escalating dose regimen); 22 Ohms in data set [2] (day 85 (with ADP), escalating dose regimen); 26 Ohms in data set [2] (day 85 (with collagen), escalating dose regimen); 21 Ohms in data set [2] (day −5 (with collagen), chronic dose regimen (*)). This substance returned a platelet aggregation in data set [2] (day −5 (with collagen), escalating dose regimen) of 23 Ohms. In data set [3], this substance came in with an ALT of 80 IU/L. Besides, the AST in data set [3] was 5 IU/L. This substance also displayed an Albumin in data set [3] of 4. In addition, in data set [3], the Bilirubin turned out to be 1 mg/dL. Further, the results for the BUN in data set [4] (2 weeks), in data set [4] (4 weeks) and in data set [4] (6 weeks) were 25 mg/dL, 30 mg/dL and 23 mg/dL, respectively. The Creatinine in data set [4] (2 weeks) turned out to be 0.13 mg/dL; in data set [4] (4 weeks), 0.22 mg/dL; in data set [4] (6 weeks) it was 0.19 mg/dL. The fibrinogen levels was 232 mg/dL in data set [5] (day 8, chronic dose regimen (*)); 281 mg/dL in data set [5] (day 8, escalating dose regimen); 174 mg/dL in data set [5] (setting [8]); 270 mg/dL in data set [5] (setting [9]); 192 mg/dL in data set [5] (setting [10]); 243 mg/dL in data set [5] (setting [11]). Moreover, the fibrinogen levels in data set [5] (day 29, chronic dose regimen (*)) was determined as 192 mg/dL; in data set [5] (day 29, escalating dose regimen), 234 mg/dL; in data set [5] (setting [12]), 185 mg/dL; in data set [5] (setting [13]) it was 232 mg/dL; in data set [5] (setting [14]), 194 mg/dL; in data set [5] (setting [15]) it was 219 mg/dL. Moreover, the fibrinogen levels was determined as 204 mg/dL in data set [5] (day 50, chronic dose regimen (*)); 215 mg/dL in data set [5] (day 50, escalating dose regimen); 186 mg/dL in data set [5] (setting [16]); 190 mg/dL in data set [5] (setting [17]); 178 mg/dL in data set [5] (day 71, escalating dose regimen); 177 mg/dL in data set [5] (setting [18]). Further, the fibrinogen levels in data set [5] (setting [19]) is 187 mg/dL; in data set [5] (setting [20]), 227 mg/dL; in data set [5] (setting [21]), 261 mg/dL; in data set [5] (setting [22]), 274 mg/dL; in data set [5] (setting [23]), 310 mg/dL. Further, the “urine protein to creatinine ratio” value in data set [6] (Day 80) is on record as 0.09; in data set [6] (Day 84), 0.12.

In data set [7], “ISIS 449707: 3-8-3, 4-8-4, 2-10-2, 3-10-3 or 4-10-4 MOE microwalk gapmer (Table 46) (antisense e[5mC]*eA*e[5mC]*eA*dG*dT*dT*dT*d[5mC]*dT*dG*dG*e[5mC]*eA*eG*eG)” had an ALT of 61 IU/L, an AST of 199 IU/L, an Albumin of 3.1 and a Bilirubin of 0.2 mg/dL.

For the substance “ISIS 449708: 3-8-3, 4-8-4, 2-10-2, 3-10-3 or 4-10-4 MOE microwalk gapmer (Table 46) (antisense eA*e[5mC]*eA*dG*dT*dT*dT*d[5mC]*dT*dG*dG*e[5mC]*eA*eG)”, in data set [7], the ALT turned out to be 25 IU/L, the AST is recorded as 90 IU/L, the Albumin was 3.2 and the Bilirubin is reported as 0.1 mg/dL.

In data set [7], “ISIS 449709: 3-8-3, 4-8-4, 2-10-2, 3-10-3 or 4-10-4 MOE microwalk gapmer (Table 46) (antisense eG*e[5mC]*eA*e[5mC]*dA*dG*dT*dT*dT*d[5mC]*dT*dG*dG*d[5mC]*eA*eG*eG*e[5mC])” had an ALT of 63 IU/L, an AST of 126 IU/L, an Albumin of 3.1 and a Bilirubin of 0.2 mg/dL.

Turning to “ISIS 449710: 3-8-3, 4-8-4, 2-10-2, 3-10-3 or 4-10-4 MOE microwalk gapmer (Table 46) (antisense e[5mC]*eA*e[5mC]*dA*dG*dT*dT*dT*d[5mC]*dT*dG*dG*d[5mC]*eA*eG*eG)”, in data set [7], the ALT came to 36 IU/L, the AST is listed as 211 IU/L, the Albumin was 2.9 and the Bilirubin amounted to 0.1 mg/dL.

In the case of “ISIS 449711: 3-8-3, 4-8-4, 2-10-2, 3-10-3 or 4-10-4 MOE microwalk gapmer (Table 46) (antisense eA*e[5mC]*dA*dG*dT*dT*dT*d[5mC]*dT*dG*dG*d[5mC]*eA*eG)”, in data set [7], the ALT came to 32 IU/L, the AST is 163 IU/L, the Albumin is on record as 2.9 and the Bilirubin is 0.1 mg/dL.

These data come from patent publication US20230263822A1, “MODULATION OF FACTOR 11 EXPRESSION” (Ionis Pharmaceuticals, Inc., priority 2008, published 2023).
